Experimental data as given in the supplement of paper PMC10307832.

What was measured:
Assay in all cases: relative viability (nuclei count vs DMSO), 5 days (fraction); higher = more cells survive
[1] = compound: COc1cc(-c2nn([C@H]3CC[C@H](N4CCN(C(C)=O)CC4)CC3)c3ncnc(N)c23)ccc1NC(=O)c1cc2ccccc2n1C + COc1cc2c(Oc3ccc(NC(=O)C4(C(=O)Nc5ccc(F)cc5)CC4)cc3F)ccnc2cc1OCCCN1CCOCC1 [Foretinib] (partner 0.25 µM)
Outline: (§1)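 Lung cancer cell lines, seeded in 1536-well plates, were treated the following day by pin tool with a single drug or with five library-drug doses (not always all listed) in √10 steps on top of a fixed anchor-drug dose. Cells were fixed and nuclei stained in one step after 5 days, and nuclei were counted. Relative viability is the nuclei count for treated wells divided by that for vehicle wells, reported as medians of duplicate plates.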

[2] = compound: CO[C@@H]1[C@H](N(C)C(=O)c2ccccc2)C[C@H]2O[C@]1(C)n1c3ccccc3c3c4c(c5c6ccccc6n2c5c31)C(=O)NC4 [Midostaurin] + Cc1cc(Nc2cc(N3CCN(C)CC3)nc(Sc3ccc(NC(=O)C4CC4)cc3)n2)n[nH]1 [Tozasertib] (partner 0.1 µM)
Outline: as §1

[3] = compound: COc1cc(-c2nn([C@H]3CC[C@H](N4CCN(C(C)=O)CC4)CC3)c3ncnc(N)c23)ccc1NC(=O)c1cc2ccccc2n1C + C[C@]1(O)C[C@@H](c2nc(-c3ccc4ccc(-c5ccccc5)nc4c3)c3c(N)nccn32)C1 [Linsitinib] (partner 1 µM)
Outline: as §1

[4] = compound: CO[C@@H]1[C@H](N(C)C(=O)c2ccccc2)C[C@H]2O[C@]1(C)n1c3ccccc3c3c4c(c5c6ccccc6n2c5c31)C(=O)NC4 [Midostaurin] + C[C@@H](Oc1cc(-c2cnn(C3CCNCC3)c2)cnc1N)c1c(Cl)ccc(F)c1Cl [Crizotinib] (partner 1 µM)
Outline: as §1

[5] = compound: COc1cc(-c2nn([C@H]3CC[C@H](N4CCN(C(C)=O)CC4)CC3)c3ncnc(N)c23)ccc1NC(=O)c1cc2ccccc2n1C + CC(C)C[C@H](NC(=O)[C@H](Cc1ccccc1)NC(=O)c1cnccn1)B(O)O [Bortezomib] (partner 0.002 µM)
Outline: as §1

Cell Line	relative viability ([1]; first compound 0.0128 µM)	relative viability ([1]; first compound 0.04048 µM)	relative viability ([1]; first compound 0.128 µM)	relative viability ([1]; first compound 1.28 µM)	relative viability ([2]; first compound 0.01 µM)	relative viability ([2]; first compound 0.03162 µM)	relative viability ([2]; first compound 0.1 µM)	relative viability ([2]; first compound 0.3162 µM)	relative viability ([3]; first compound 0.0128 µM)	relative viability ([3]; first compound 0.04048 µM)	relative viability ([3]; first compound 0.128 µM)	relative viability ([3]; first compound 1.28 µM)	relative viability ([4]; first compound 0.01 µM)	relative viability ([4]; first compound 0.03162 µM)	relative viability ([4]; first compound 0.1 µM)	relative viability ([4]; first compound 0.3162 µM)	relative viability ([5]; first compound 0.0128 µM)	relative viability ([5]; first compound 0.04048 µM)	relative viability ([5]; first compound 0.128 µM)	relative viability ([5]; first compound 1.28 µM)
HOP-62	1.16	1.12	1.07	1.03	0.363	0.431	0.303	0.321	0.955	0.964	0.881	0.843	0.846	0.624	0.988	1.15	0.845	0.883	0.992	0.621
LC-2-ad	0.932	0.976	0.886	0.662	0.509	0.545	0.52	0.422	0.659	0.846	0.835	0.681	0.469	0.428	0.485	0.483	1.09	1.12	1.06	1.01
LCLC-97TM1	1.06	0.692	0.864	0.887	0.21	0.218	0.247	0.257	0.183	0.205	0.173	0.238	0.418		0.205	0.304	0.35	0.327	0.567	0.584
LCLC-103H	0.774	0.972	0.616	0.65	0.522	0.45	0.456	0.379	1.12	1.21	0.957	1.01	1.05	1.01	0.982	1.02	1.16	1.13	1.15	0.99
LOU-NH91	0.991	0.99	0.968	0.922	0.722	0.608	0.653	0.642	0.889	1.02	1.02	0.833	0.753	0.748	0.758	0.721	0.498	0.522	0.515	0.518
LU99A	0.96	0.895	0.857	0.821	0.227	0.304	0.259	0.244	0.555	0.563	0.543	0.524	0.603	0.634	0.541	0.533	1.34	1.19	1.04	1.3
LXF-289	1.05	0.962	0.986	1.03	0.23	0.23	0.178	0.176	1.02	0.927	0.939	1.08	0.815	0.78	0.764	0.831	1.07	0.963	1	1.18
NCI-H23	1.22	1.03	0.797	0.651	0.344	0.575	0.348	0.259	0.613	0.417	0.612	0.49	0.479	0.512	0.355	0.41	1.06	0.682	1.18	0.883
NCI-H322M	1.03	1.11	0.878	0.785	0.474	0.477	0.481	0.544	0.9	0.909	0.767	0.803	0.982	0.948	0.912	0.905	1.23	1.52	1.17	1.17
NCI-H441	1.09	1.29	0.998	0.89	0.592	0.631	0.564	0.401	0.555	0.612	0.603	0.491	0.778	0.807	0.596	0.764	0.591	0.823	0.665	0.616
NCI-H460	1	1.13	0.916	0.975	0.448	0.492	0.44	0.415	0.662	1.09	0.669	0.344	0.903	0.75	0.898	0.787	1.14	1.26	1.09	0.99
NCI-H520	0.755	0.731	0.65	0.613	0.434	0.411	0.457	0.407	0.715	0.795	0.9	0.683	0.69	0.668	0.691	0.525	0.741	0.624	0.358	0.334
NCI-H596	0.884	0.835	0.709	0.558	0.991	0.977	0.899	0.947	1.1	1.3	1.12	0.748	0.957	1.12	1.11	1.1	1.03	1.31	0.908	0.954
NCI-H647	1.16	1.44	1.21	0.806	0.411	0.35	0.293	0.18	1.3	1.36	1.14	0.785	1.06	0.802	0.832	0.416	1.13	1.34	0.877	0.588
NCI-H650	1.02	1.24	1.07	1.02	0.657	0.751	0.749	0.615	0.854	1.26	0.894	0.64	0.574	0.748	0.773	0.444	1.17	1.23	0.848	0.867
NCI-H661	1.16	1.13	1.01	1.03	0.362	0.323	0.364	0.376	0.618	0.507	0.448	0.357	0.931	0.928	0.918	0.982	0.879	0.823	0.709	0.384
NCI-H727	0.915		0.831	0.587	0.704	0.704	0.575	0.468	0.401		0.162	0.33	0.861	0.524	0.729	0.459	0.834		0.808	1.06
NCI-H838	1.01	0.989	0.973	0.604	0.271	0.283	0.262	0.286	0.974	1.1	1.06	0.657	0.877	0.634	0.812	0.524	1.18	0.817	0.578	0.628
NCI-H1355	1	0.958	0.988	0.883	0.544	0.632	0.597	0.475	0.997	0.867	0.918	0.818	0.965	1.01	0.987	1	1.4	1.23	1.22	1.15
NCI-H1437	1.34	1.31	1.29	1.29	0.453	0.477	0.401	0.403	0.987	1.08	0.986	0.523	0.935	0.87	0.878	1	0.587	0.522	0.365	0.585
NCI-H1651	0.911	0.886	0.969	0.692	0.628	0.752	0.543	0.685	0.879	1.11	0.871	0.638	0.916	0.85	0.918	0.889	0.85	0.949	0.939	0.84
NCI-H1666	0.971	0.881	0.957	0.947	0.629	0.572	0.596	0.488	0.804	0.816	0.733	0.771	0.874	1.12	0.858	0.787	0.946	0.859	0.807	0.68
NCI-H1734	0.877	0.683	0.897	0.536	0.239	0.276	0.294	0.267	0.847	0.772	0.873	0.717	0.653	0.691	0.705	0.647	0.995	0.862	1.1	0.756
NCI-H1755	1.02	0.87	0.833	0.885	0.521	0.614	0.535	0.547	1.12	0.966	0.92	0.939	0.808	0.805	0.761	0.484	1.06	0.993	1.03	0.86
NCI-H1915	1.14	1.03	1.06	0.844	0.46	0.435	0.404	0.412	1.17	1.13	1.11	1.03	0.889	0.889	0.979	0.94	1.05	1.03	0.931	0.929
NCI-H1975	0.887	0.912	0.918	0.481	0.732	0.763	0.716	0.37	0.872	1.06	0.837	0.407	1	0.963	0.863	0.623	0.401	0.399	0.332	0.199
NCI-H1993	0.747	0.743	0.784	0.556	0.595	0.606	0.545	0.599	0.91	0.691	0.698	0.611	0.879	0.762	1.06	0.893	1.2	1.09	1	0.956
NCI-H2009	1.22	1.12	1.22	0.896	0.711	0.707	0.563	0.426	1.2	1.18	1.2	0.931	1.07	0.98	0.996	1.06	1.14	0.555	1.06	0.962
NCI-H2023	0.802	0.804	0.717	0.535	0.408	0.316	0.29	0.171	0.7	0.641	0.624	0.531	0.642	0.613	0.584	0.499	0.977	1.11	0.897	0.905
NCI-H2085	1.12	0.876	0.834	0.691	0.807	0.764	0.663	0.582	0.832	0.932	0.834	0.851	0.769	0.805	0.814	0.582	1.05	1.06	1.12	1.14
